In PubChem BioAssay (NCI):
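Test compounds were applied to cells in 96-well plates for 48 hours at 5 doses. TGI: concentration producing complete growth inhibition.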

Tests used:
Experiment in all cases: inhibition of tumour cell growth, NCI panel, 48 h
786-0 renal = system: 786-0 renal
A549 NSCLC = system: A549 NSCLC
ACHN renal = system: ACHN renal
CAKI-1 renal = system: CAKI-1 renal
CCRF-CEM leukemia = system: CCRF-CEM leukemia
COLO 205 colon = system: COLO 205 colon
DLD-1 colon = system: DLD-1 colon
DMS 114 small cell lung = system: DMS 114 small cell lung
EKVX NSCLC = system: EKVX NSCLC
HCC-2998 colon = system: HCC-2998 colon
HCT-116 colon = system: HCT-116 colon
HL-60(TB) leukemia = system: HL-60(TB) leukemia
HOP-62 NSCLC = system: HOP-62 NSCLC
HT29 colon = system: HT29 colon
IGROV1 ovarian = system: IGROV1 ovarian
K-562 leukemia = system: K-562 leukemia
KM12 colon = system: KM12 colon
KM20L2 colon = system: KM20L2 colon
LOX IMVI melanoma = system: LOX IMVI melanoma
LXFL 529 NSCLC = system: LXFL 529 NSCLC
M14 melanoma = system: M14 melanoma
M19-MEL melanoma = system: M19-MEL melanoma
MALME-3M melanoma = system: MALME-3M melanoma
MOLT-4 leukemia = system: MOLT-4 leukemia
NCI-H226 lung = system: NCI-H226 lung
NCI-H23 lung = system: NCI-H23 lung
NCI-H460 lung = system: NCI-H460 lung
NCI-H522 lung = system: NCI-H522 lung
OVCAR-3 ovarian = system: OVCAR-3 ovarian
OVCAR-4 ovarian = system: OVCAR-4 ovarian
OVCAR-5 ovarian = system: OVCAR-5 ovarian
OVCAR-8 ovarian = system: OVCAR-8 ovarian
RPMI-8226 leukemia = system: RPMI-8226 leukemia
RXF 393 renal = system: RXF 393 renal
SF-268 CNS = system: SF-268 CNS
SF-295 CNS = system: SF-295 CNS
SF-539 CNS = system: SF-539 CNS
SK-MEL-2 melanoma = system: SK-MEL-2 melanoma
SK-MEL-28 melanoma = system: SK-MEL-28 melanoma
SK-MEL-5 melanoma = system: SK-MEL-5 melanoma
SK-OV-3 ovarian = system: SK-OV-3 ovarian
SN12C renal = system: SN12C renal
SNB-19 CNS = system: SNB-19 CNS
SNB-78 CNS = system: SNB-78 CNS
SR leukemia = system: SR leukemia
SW-620 colon = system: SW-620 colon
U251 CNS = system: U251 CNS
UACC-257 melanoma = system: UACC-257 melanoma
UACC-62 melanoma = system: UACC-62 melanoma
UO-31 renal = system: UO-31 renal
A498 renal = system: A498 renal
BT-549 breast = system: BT-549 breast
DU-145 prostate = system: DU-145 prostate
HCT-15 colon = system: HCT-15 colon
HOP-92 NSCLC = system: HOP-92 NSCLC
HS 578T breast = system: HS 578T breast
MCF7 breast = system: MCF7 breast
MDA-MB-231 breast = system: MDA-MB-231 breast
MDA-MB-435 = system: MDA-MB-435
MDA-N = system: MDA-N
NCI/ADR-RES ovarian = system: NCI/ADR-RES ovarian
PC-3 prostate = system: PC-3 prostate
SNB-75 CNS = system: SNB-75 CNS
T-47D breast = system: T-47D breast
TK-10 renal = system: TK-10 renal

Measured: TGI

CO[C@H](C(=O)O[C@H]1C(=O)N2CC[C@@H]3CCC[C@H]1C32C)c1ccccc1 (stereo partly specified)
not listed: A498 renal | BT-549 breast | DU-145 prostate | HCT-15 colon | HOP-92 NSCLC | HS 578T breast | MCF7 breast | MDA-MB-231 breast | MDA-MB-435 | MDA-N | NCI/ADR-RES ovarian | PC-3 prostate | SNB-75 CNS | T-47D breast | TK-10 renal
> 100 µM: all other assays above

CCN(CC)C(=S)/N=C(\SC(=S)N(CC)CC)c1ccccc1
36.1 µM: LOX IMVI melanoma
> 25.7 µM: MDA-MB-231 breast
> 88.2 µM: UO-31 renal
> 83.2 µM: HOP-62 NSCLC
20.9 µM: HCT-116 colon
> 96.1 µM: RPMI-8226 leukemia
> 44.1 µM: KM12 colon
72.5 µM: COLO 205 colon
> 87.9 µM: DU-145 prostate
> 73.2 µM: MDA-N
> 74.8 µM: MOLT-4 leukemia
3.39 µM: NCI-H522 lung
not listed: DLD-1 colon | DMS 114 small cell lung | HL-60(TB) leukemia | KM20L2 colon | LXFL 529 NSCLC | M19-MEL melanoma | SNB-78 CNS | SR leukemia
> 100 µM: all other assays above

COc1cc(/C=N/N=C(\N)NO)ccc1O
90.3 µM: OVCAR-5 ovarian
85.9 µM: NCI-H226 lung
not listed: 786-0 renal | HCC-2998 colon | HL-60(TB) leukemia | HOP-62 NSCLC | KM20L2 colon | M14 melanoma | M19-MEL melanoma | OVCAR-3 ovarian | SR leukemia | BT-549 breast | DU-145 prostate | HS 578T breast | MCF7 breast | MDA-MB-231 breast | MDA-MB-435 | MDA-N | NCI/ADR-RES ovarian | PC-3 prostate | SNB-75 CNS | T-47D breast | TK-10 renal
> 100 µM: all other assays above

CN(CC(=O)O)CC(=O)O
not listed: DLD-1 colon | DMS 114 small cell lung | KM20L2 colon | LXFL 529 NSCLC | M19-MEL melanoma | SNB-78 CNS | SR leukemia
> 100 µM: all other assays above

NC1=NCC(CN2CCCCC2)O1 (stereo unspecified)
not listed: DLD-1 colon | DMS 114 small cell lung | HCC-2998 colon | KM20L2 colon | LXFL 529 NSCLC | M19-MEL melanoma | NCI-H23 lung | OVCAR-4 ovarian | OVCAR-5 ovarian | SK-MEL-2 melanoma | SNB-78 CNS | A498 renal | DU-145 prostate | HOP-92 NSCLC
> 100 µM: all other assays above

O=C(Nc1ccn(C2CC(I)C(COC(c3ccccc3)(c3ccccc3)c3ccccc3)O2)c(=O)n1)c1ccccc1 (stereo unspecified)
67 µM: BT-549 breast
17.3 µM: CCRF-CEM leukemia
2.15 µM: SR leukemia
14.1 µM: NCI-H460 lung
17.9 µM: MDA-MB-231 breast | SF-268 CNS
9.61 µM: SNB-75 CNS
14.5 µM: U251 CNS
14.9 µM: SK-MEL-5 melanoma
13.1 µM: OVCAR-8 ovarian
14.7 µM: LOX IMVI melanoma
12.6 µM: SN12C renal
14.6 µM: MDA-N
15.7 µM: MDA-MB-435
13.4 µM: MALME-3M melanoma
18.4 µM: SF-539 CNS
24 µM: KM12 colon
13.2 µM: HOP-92 NSCLC | RXF 393 renal
20.9 µM: PC-3 prostate
> 31.6 µM: MCF7 breast
20.4 µM: UACC-257 melanoma
12.1 µM: MOLT-4 leukemia
21.2 µM: HOP-62 NSCLC
> 21.5 µM: OVCAR-5 ovarian
15.4 µM: UACC-62 melanoma
12.8 µM: COLO 205 colon | NCI-H226 lung | UO-31 renal
16.7 µM: OVCAR-4 ovarian
13 µM: A498 renal | OVCAR-3 ovarian
15.5 µM: 786-0 renal
20.2 µM: NCI/ADR-RES ovarian
17 µM: RPMI-8226 leukemia
16.2 µM: SK-MEL-28 melanoma
12.2 µM: HCT-116 colon
13.8 µM: M14 melanoma
not listed: DLD-1 colon | DMS 114 small cell lung | KM20L2 colon | LXFL 529 NSCLC | M19-MEL melanoma | SK-MEL-2 melanoma | SNB-78 CNS
21.5 µM: all other assays above

CC(=O)Nc1c2sscc-2n(C)c1=O
0.275 µM: MOLT-4 leukemia
3.18 µM: RXF 393 renal
5.9 µM: HL-60(TB) leukemia
3.27 µM: A498 renal
2.76 µM: BT-549 breast
3.24 µM: 786-0 renal
3.36 µM: CAKI-1 renal | SK-MEL-2 melanoma
0.692 µM: HT29 colon
1.36 µM: OVCAR-8 ovarian
2.69 µM: SK-MEL-28 melanoma
3.4 µM: NCI-H226 lung
4.22 µM: NCI/ADR-RES ovarian
3.37 µM: SN12C renal
3.19 µM: T-47D breast
3.09 µM: SF-268 CNS
1.89 µM: HCC-2998 colon
2.66 µM: HCT-15 colon
12.1 µM: ACHN renal
2.84 µM: SK-OV-3 ovarian
1.83 µM: SW-620 colon
5.71 µM: K-562 leukemia
2.6 µM: KM12 colon
4.83 µM: TK-10 renal
1.69 µM: MCF7 breast
2.51 µM: MDA-MB-435
3.05 µM: SNB-75 CNS
3.52 µM: SF-539 CNS
3.58 µM: UO-31 renal
3.38 µM: SK-MEL-5 melanoma
3.54 µM: MDA-MB-231 breast
3.39 µM: LOX IMVI melanoma
2.19 µM: MALME-3M melanoma
4.48 µM: RPMI-8226 leukemia
0.865 µM: M14 melanoma
2.97 µM: PC-3 prostate | UACC-257 melanoma
3.15 µM: HOP-62 NSCLC
1.96 µM: HCT-116 colon
3.45 µM: SNB-19 CNS
3 µM: OVCAR-5 ovarian
2.65 µM: NCI-H522 lung | SF-295 CNS
1.32 µM: NCI-H460 lung
2.28 µM: NCI-H23 lung
3.56 µM: A549 NSCLC
3.7 µM: HOP-92 NSCLC
5.54 µM: DU-145 prostate
10.3 µM: HS 578T breast
5.36 µM: UACC-62 melanoma
1.84 µM: COLO 205 colon
3.3 µM: OVCAR-3 ovarian
2.54 µM: U251 CNS
4.65 µM: IGROV1 ovarian
2.96 µM: OVCAR-4 ovarian
3.13 µM: MDA-N
3.68 µM: EKVX NSCLC
1.51 µM: CCRF-CEM leukemia
